Experimental findings from patent US20260042745A1, “PYRROLIDINE-2-CARBOXAMIDE DERIVATIVES AS PROSTAGLANDIN E2 RECEPTOR 4 (EP4) AGONISTS FOR THE TREATMENT OF GASTROINTESTINAL AND PULMONARY DISEASES” (NXERA PHARMA UK LIMITED, priority 2022, published 2026) are described below.

Molecules are shown by their SMILES.

The nature of series [1]: Unidirectional Caco-2 cell permeability assay. In kind it is in vitro ADME. The following applies: human, apical pH 6.5, basolateral pH 7.4, 1 hour, 37° C., n=2. As to the method:
Caco-2 cells (ECACC) were seeded onto 24-well Transwell plates at 2×10^5 cells per well and used in confluent monolayers after a 21 day culture at 37° C. under 500 CO2. Test compounds were incubated at 10 μM, 0.2% DMSO final, n=2 in assay buffer (Hanks balanced salt solution supplemented with 25 mM HEPES, adjusted to pH 6.5). Hanks balanced salt solution supplemented with 25 mM HEPES, adjusted to pH 7.4 (0.2% DMSO final) was used for the basolateral chamber (as receiver).
Incubations were performed at 37° C., with samples removed from both donor and acceptor chambers at T=0 and 1 hour and compound analysed by mass spectrometry (LC-MS/MS) including an analytical internal standard ([…] carbamazepine).
Apparent permeability (Papp) values are shown in Table 3 and were determined from the relationship:
Where V is the volume of each Transwell compartment (apical 125 μL, basolateral 600 μL), and concentrations are the relative MS responses for compound (normalized to internal standard) in the donor chamber before incubation and acceptor chamber at the end of the incubation Area=area of cells exposed for drug transfer (0.33 cm^2).
Lucifer Yellow (LY) was added to the apical buffer in all wells to assess viability of the cell layer. As LY cannot freely permeate lipophilic barriers, a high degree of LY transport indicates poor integrity of the cell layer and wells with a LY Papp>10×10^−6 cm/s were rejected.
Compound recovery from the wells was determined from MS responses (normalized to internal standard) in donor and acceptor chambers at the end of incubation compared to response in the donor chamber pre-incubation.

A further series deals with T1, human EP4 (Homo sapiens, UniProt P35408).
T1 construct: expressed in transfected cells; host or cells: HEK293 cells transduced with EP4 BacMam baculovirus
Description: cAMP Gs functional assay (HTRF cAMP dynamic-2) in EP4-transfected HEK293 cells. It is filed as cell-based. The following applies: HEK293 cells transfected with EP4 BacMam virus. As to the method: Cloning, Baculovirus generation, large scale infection of HEK293 cells and membrane preparation: Human prostaglandin E2 receptor 4 (EP4) was cloned into pBacMam expression vector (GeneScript, UK). Transposition of EP4 DNA was performed using Invitrogen's Bac-to-Bac Baculovirus Expression Systems. P0 baculovirus was generated by transfecting SF9 Cells with bacmid DNA using Cellfectin II transfection reagent (ThermoFisher Scientific, UK). Following P0 generation P1 virus was then generated ready for large scale infection and membrane preparation. HEK293 cells were grown in DMEM (ThermoFisher Scientific, UK), supplemented with 10% heat inactivated fetal bovine serum (FBS). Cells were infected at a seeding density of 3.5 million cells/mL in 500 cm^3 flasks at 5% v/v EP4 Bacman. Expression was carried out over a 36 hour period at 37° C. with 5% CO2. The cells were removed using PBS and a cell scrapper. The cell culture was centrifuged at 2500 RPM for 10 mins at 4° C. The supernatant was then poured off and the pellet stored at −80° C. The pellet was defrosted and re-suspended in 15 mL of homogenising buffer (20 mM HEPES, 10 mM EDTA, pH 7.4). Then homogenised in mechanical homogeniser (VMR) for 10 seconds. The membrane was centrifuged in centrifuge tubes at 40,000 g for 15 mins at 4° C. The supernatant was poured away and re-suspended in 15 mL of homogenising buffer and homogenised for 20 seconds. The membrane was then centrifuged at 40,000 g for 45 mins at 4° C. The membrane was then re-suspended in 3 mL of storage buffer (20 mM HEPES, 0.1 mM EDTA, pH 7.4) mixing well. The resulting membranes were then stored at −80° C.
cAMP Gs Functional Assay: cAMP production following EP4 receptor activation was determined using the Homogeneous Time-Resolved Fluorescence (HTRF) cAMP dynamic-2 assay (Cisbio, France). HEK293 cells were transfected using a 0.5% EP4 Bacman virus for 36 hours, before dissociating the cells, and freezing at −150° C.
On the day of testing, increasing concentration of test compounds, alongside positive controls ([…] PGE2 (Tocris, Abingdon, UK)) and negative control (DMSO (Sigma-Aldrich, UK) were added to a ProxiPlate-384 Plus, White 384-shallow well Mircoplate, (PerkinElmer, USA) using the ECHO dispense.
Cells were defrosted in a water bath and resuspended in DMEM supplemented with 10% FBS before centrifuging at 1200 RPM for 5 mins to form a pellet. The pellet was resuspended in assay buffer (DMEM+0.5 mM IBMX (Tocris, Abingdon, UK)) to 0.5×10^6 cells/mL. Cell suspension, for a final assay concentration of 5000 cell/well was added using the multidrop to the pre-dispensed assay plate. The plate was then incubated at 37° C. for 30 mins, with 5% CO2. The cAMP production was determined as manufacturer's instructions, before plates were read on a PheraStar fluorescence plate reader (BMG LabTech, Germany).

T1 sequence (P35408 whole entry): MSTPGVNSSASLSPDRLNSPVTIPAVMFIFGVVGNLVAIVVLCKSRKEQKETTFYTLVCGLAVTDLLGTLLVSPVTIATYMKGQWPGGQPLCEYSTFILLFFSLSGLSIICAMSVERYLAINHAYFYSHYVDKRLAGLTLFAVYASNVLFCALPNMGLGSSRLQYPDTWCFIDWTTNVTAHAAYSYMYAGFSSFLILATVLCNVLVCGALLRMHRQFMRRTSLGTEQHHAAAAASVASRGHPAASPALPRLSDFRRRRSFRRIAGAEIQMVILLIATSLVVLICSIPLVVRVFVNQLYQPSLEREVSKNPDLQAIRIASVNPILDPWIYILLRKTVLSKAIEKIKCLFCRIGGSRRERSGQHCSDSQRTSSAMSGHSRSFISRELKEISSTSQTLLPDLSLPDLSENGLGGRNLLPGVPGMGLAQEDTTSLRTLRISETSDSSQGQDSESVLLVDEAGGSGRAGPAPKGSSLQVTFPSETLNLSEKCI

In series [1], `Cc1cc(C(N)=O)ccc1-c1cc(O)cc(CN2CC3CC2(C(=O)N[C@@H](C)c2ccc(C(=O)O)cc2)C3)c1` [Example 23, (S)-4-(1-(2-((4′-carbamoyl-5-hydroxy-2′-methyl-[1,1′-biphenyl]-3-yl)methyl)-2-azabicyclo[2.1.1]hexane-1-carboxamido)ethyl)benzoic acid] showed a Papp A→B at 1 h, 10 μM of 0.245 ×10⁻⁶ cm/s. Further, the EC50 on human EP4 (30 min at 37° C., HTRF cAMP, read-out: cAMP human EP4 pEC50 (converted)) is 0.158 nM. Also, at human EP4 (positive control PGE2), the cAMP human EP4 Emax amounted to 91%.
